In the Kinase Knowledgebase extract (Sharma et al. 2016):

Tests used:
[1] = target: PIK3CA (human) (UniProt P42336); experiment: Inhibition of PIK3CA Kinase Activity
[2] = target: PIK3CB (Human) (UniProt P42338); experiment: Inhibition of PIK3CB Kinase Activity
[3] = target: PIK3CD (Human) (UniProt O00329); experiment: Inhibition of PIK3CD Kinase Activity
[4] = target: PIK3CG (human) (UniProt P48736); experiment: Inhibition of PIK3CG Kinase Activity
PIK3CG (human), sequence (P48736 whole entry, looked up): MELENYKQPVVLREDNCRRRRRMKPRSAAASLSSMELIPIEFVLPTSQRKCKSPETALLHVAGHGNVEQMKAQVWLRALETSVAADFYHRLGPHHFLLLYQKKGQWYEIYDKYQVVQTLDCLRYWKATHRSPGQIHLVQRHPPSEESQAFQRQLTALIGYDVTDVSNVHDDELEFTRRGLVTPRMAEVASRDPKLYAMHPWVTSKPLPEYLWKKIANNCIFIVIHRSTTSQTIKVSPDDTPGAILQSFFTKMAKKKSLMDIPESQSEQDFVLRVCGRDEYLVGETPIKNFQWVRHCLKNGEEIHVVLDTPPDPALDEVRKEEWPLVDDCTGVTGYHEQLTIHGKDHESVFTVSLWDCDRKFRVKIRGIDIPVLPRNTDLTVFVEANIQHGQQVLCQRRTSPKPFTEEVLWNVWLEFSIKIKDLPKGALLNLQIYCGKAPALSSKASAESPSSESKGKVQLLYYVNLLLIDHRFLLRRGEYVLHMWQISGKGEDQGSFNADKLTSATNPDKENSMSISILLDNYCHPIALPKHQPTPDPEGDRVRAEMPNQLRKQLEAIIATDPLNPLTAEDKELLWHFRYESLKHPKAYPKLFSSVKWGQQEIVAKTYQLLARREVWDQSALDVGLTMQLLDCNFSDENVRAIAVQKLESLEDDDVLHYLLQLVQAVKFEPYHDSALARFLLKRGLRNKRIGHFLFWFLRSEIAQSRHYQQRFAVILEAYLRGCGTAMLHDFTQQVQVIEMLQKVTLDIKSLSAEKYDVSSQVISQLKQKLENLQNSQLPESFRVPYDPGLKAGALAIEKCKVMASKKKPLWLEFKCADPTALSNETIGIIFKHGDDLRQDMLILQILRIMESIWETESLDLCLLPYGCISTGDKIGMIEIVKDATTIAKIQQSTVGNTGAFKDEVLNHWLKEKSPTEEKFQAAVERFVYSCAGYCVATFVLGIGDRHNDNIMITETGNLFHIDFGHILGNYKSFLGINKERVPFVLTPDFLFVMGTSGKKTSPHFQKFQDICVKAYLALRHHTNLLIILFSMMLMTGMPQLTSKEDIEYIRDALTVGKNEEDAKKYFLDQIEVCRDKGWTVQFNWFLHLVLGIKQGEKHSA

PIK3CA (human), sequence (P42336 whole entry, looked up): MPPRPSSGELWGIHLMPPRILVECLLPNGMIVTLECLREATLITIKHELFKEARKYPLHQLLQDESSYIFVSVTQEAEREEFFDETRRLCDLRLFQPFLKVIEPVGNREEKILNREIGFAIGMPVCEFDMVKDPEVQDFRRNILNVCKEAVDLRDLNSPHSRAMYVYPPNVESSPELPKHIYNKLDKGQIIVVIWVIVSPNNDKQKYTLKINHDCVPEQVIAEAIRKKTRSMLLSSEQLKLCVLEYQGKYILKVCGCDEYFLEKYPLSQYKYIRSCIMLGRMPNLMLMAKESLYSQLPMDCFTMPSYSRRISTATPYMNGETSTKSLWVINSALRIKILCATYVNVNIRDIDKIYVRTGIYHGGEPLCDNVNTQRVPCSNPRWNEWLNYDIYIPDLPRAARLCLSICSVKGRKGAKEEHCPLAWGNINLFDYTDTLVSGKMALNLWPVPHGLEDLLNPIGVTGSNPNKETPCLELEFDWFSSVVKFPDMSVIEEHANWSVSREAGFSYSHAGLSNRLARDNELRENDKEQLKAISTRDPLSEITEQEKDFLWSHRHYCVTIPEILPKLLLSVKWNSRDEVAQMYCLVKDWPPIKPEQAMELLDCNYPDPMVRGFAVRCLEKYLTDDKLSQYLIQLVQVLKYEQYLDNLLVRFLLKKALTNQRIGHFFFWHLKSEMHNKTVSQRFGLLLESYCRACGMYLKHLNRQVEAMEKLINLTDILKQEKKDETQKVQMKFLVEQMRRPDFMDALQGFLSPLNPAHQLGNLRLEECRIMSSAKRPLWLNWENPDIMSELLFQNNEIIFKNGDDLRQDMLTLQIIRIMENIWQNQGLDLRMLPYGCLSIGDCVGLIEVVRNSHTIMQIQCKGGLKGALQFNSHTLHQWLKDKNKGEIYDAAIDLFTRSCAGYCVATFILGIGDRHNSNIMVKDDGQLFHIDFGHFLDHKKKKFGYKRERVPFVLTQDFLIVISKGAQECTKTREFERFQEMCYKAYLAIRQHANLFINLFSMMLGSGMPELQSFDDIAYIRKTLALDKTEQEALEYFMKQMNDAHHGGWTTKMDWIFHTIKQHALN
PIK3CD (Human), sequence (O00329 whole entry, looked up): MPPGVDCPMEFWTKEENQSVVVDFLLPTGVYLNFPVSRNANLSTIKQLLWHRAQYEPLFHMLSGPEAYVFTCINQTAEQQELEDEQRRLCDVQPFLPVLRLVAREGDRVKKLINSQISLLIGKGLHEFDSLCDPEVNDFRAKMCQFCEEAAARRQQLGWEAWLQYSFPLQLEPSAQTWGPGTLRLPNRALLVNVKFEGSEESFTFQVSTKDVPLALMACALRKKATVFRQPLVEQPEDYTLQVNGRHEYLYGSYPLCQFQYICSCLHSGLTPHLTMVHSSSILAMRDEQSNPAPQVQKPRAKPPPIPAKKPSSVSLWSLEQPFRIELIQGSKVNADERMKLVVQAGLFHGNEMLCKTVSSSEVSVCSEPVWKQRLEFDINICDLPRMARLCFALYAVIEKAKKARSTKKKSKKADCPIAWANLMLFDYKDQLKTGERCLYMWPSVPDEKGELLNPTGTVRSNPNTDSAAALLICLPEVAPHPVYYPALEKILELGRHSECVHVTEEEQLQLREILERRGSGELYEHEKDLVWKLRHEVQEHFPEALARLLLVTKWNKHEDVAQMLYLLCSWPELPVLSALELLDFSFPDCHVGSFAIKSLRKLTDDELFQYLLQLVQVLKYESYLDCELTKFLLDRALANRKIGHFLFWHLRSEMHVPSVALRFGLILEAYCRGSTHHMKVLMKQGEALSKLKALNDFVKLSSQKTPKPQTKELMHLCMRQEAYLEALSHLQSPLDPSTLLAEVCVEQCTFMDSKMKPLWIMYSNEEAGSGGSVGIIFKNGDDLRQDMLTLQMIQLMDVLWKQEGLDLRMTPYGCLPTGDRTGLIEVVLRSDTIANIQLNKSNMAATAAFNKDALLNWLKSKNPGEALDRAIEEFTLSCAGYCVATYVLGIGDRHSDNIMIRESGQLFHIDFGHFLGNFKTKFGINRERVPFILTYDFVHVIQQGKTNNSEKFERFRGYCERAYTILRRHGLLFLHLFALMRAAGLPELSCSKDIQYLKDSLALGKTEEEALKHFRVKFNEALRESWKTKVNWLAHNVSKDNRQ
PIK3CB (Human), sequence (P42338 whole entry, looked up): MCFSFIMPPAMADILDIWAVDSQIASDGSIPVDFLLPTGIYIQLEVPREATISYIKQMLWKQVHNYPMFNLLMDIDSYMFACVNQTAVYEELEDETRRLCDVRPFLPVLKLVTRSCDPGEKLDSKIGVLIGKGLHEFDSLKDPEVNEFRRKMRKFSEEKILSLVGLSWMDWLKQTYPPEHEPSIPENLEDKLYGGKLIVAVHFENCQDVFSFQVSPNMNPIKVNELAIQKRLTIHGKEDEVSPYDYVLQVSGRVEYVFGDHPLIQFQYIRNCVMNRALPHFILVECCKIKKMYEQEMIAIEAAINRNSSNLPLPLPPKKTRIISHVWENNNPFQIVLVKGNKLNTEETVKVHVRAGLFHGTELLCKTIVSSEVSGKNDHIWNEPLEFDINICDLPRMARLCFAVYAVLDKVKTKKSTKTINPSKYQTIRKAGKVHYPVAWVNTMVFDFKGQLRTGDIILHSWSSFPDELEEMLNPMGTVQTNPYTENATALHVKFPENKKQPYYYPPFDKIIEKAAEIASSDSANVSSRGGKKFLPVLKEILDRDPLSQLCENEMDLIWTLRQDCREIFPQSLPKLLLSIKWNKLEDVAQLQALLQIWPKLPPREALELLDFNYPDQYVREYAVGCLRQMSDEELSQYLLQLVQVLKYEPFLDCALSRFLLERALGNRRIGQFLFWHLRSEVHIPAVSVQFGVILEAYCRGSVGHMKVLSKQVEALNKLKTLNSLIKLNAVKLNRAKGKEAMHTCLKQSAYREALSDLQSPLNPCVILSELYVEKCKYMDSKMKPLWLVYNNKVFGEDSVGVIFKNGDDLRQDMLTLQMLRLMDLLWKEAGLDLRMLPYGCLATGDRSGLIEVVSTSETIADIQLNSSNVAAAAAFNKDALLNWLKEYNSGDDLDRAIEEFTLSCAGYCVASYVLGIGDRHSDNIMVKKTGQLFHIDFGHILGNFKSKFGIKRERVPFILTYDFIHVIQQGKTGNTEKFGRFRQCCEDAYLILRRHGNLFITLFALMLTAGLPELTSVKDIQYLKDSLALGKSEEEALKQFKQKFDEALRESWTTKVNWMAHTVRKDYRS

Compound | IC50 [1] [nM] | IC50 [2] [nM] | IC50 [3] [nM] | IC50 [4] [nM]
COc1cc(-c2ccc3nc(C)c(-c4cnc(N)c(C(F)(F)F)c4)n3n2)ccc1OC1CCNCC1 | 63 | 1040 | 153 | 1180
COc1cccc(NC(=O)NCCCOc2ccc(-c3ccc4nc(C)c(-c5cnc(N)c(C(F)(F)F)c5)n4n3)cc2OC)c1 | 925 | – | – | –
COc1cc(-c2ccc3nc(C)c(-c4cnc(N)c(C(F)(F)F)c4)n3n2)ccc1OCCNC(=O)Nc1cccc(C(F)(F)F)c1 | 3690 | – | – | –

Further compounds by falling IC50 [1], results first:

IC50 [1] [nM] | IC50 [2] [nM] | IC50 [3] [nM] | IC50 [4] [nM] | Compound
3560 | – | – | – | COc1cc(-c2ccc3nc(C)c(-c4cnc(N)c(C(F)(F)F)c4)n3n2)ccc1OCCCNC(=O)c1ccc(F)c(F)c1
59 | 1370 | 309 | – | COc1ccc(-c2ccc3nc(C)c(-c4cccnc4)n3n2)cc1OC
